≈ marks a conversion by molar mass, not a printed value. Where two headings read alike, the source gives them in different places. Each block holds one compound with its values, some of them ahead of it.
What was measured:
[1] = system: human mononuclear leucocytes (MNL, white blood cells); experiment: direct leucocyte toxicity, tryptan blue exclusion, 18 hours; type: cell-based
Experimental: The in vitro assay used human mononuclear leucocytes (MNL, white blood cells) which were incubated with the test compound for 18 hours and cell death determined by tryptan blue exclusion (tryptan blue is a dye, which stains dead cells, whilst living cells extrude it).
The toxicity of 4PYcq and the aldehyde cq and pyridine-4-carboxamidrazone precursors were assessed using the same in vitro assay with human mononuclear leucocytes as that described above. The toxicity of related compounds, 2-hydroxybenzylidene-pyridine-2-carboxamidrazone 4PYbw and benzylidenepyridine-2-carboxamidrazone 4PYaa were also examined.

[2] = system: MRSA; experiment: MIC, agar dilution, multipoint inoculator; type: cell-based, methicillin-resistant Staphylococcus aureus
Experimental: (§1) This activity was measured using a multipoint inoculator method as follows. The MIC for each compound was measured using an agar dilution method (Onda, H., et al., Int. J. Antimicrob. Agents. 18, 263 (2001)) (Mueller Hinton agar) by means of a multipoint inoculator delivering 10^4 colony forming units per spot.
‘Staph’ refers to the reference strain of S. aureus (NCTC 6571). A tick in the MRSA column refers to a positive zone against MRSA strain 96-7474, and the MIC range (in μg/ml) which follows is that found against a panel of ten MRSA strains. Where MIC values are given for MRSA, these are stated as a range of values, as testing was carried out on a panel of clinical isolates.

[3] = system: S. aureus; experiment: MIC, agar dilution, multipoint inoculator; type: cell-based, Staphylococcus aureus; settings: upper value of MIC reading
Experimental: as §1

[4] = system: S. epidemisis; experiment: MIC, agar dilution, multipoint inoculator; type: cell-based, Staphylococcus epidermidis; settings: upper value of MIC reading
Experimental: as §1

[5] = system: E. faecalis; experiment: MIC, agar dilution, multipoint inoculator; type: cell-based; settings: upper value of MIC reading
Experimental: as §1

[6] = system: S. haemolyticus; experiment: MIC, agar dilution, multipoint inoculator; type: cell-based; settings: S. haemolyticus Isolate 1, upper value of MIC reading
Experimental: as §1

[7] = system: E. faecium; experiment: MIC, agar dilution, multipoint inoculator; type: cell-based, Enterococcus faecium; settings: upper value of MIC reading
Experimental: as §1

[8] = panel of ten MRSA strains (clinical isolates)
[9] = MRSA Isolate 1, upper value of MIC reading, in µg/mL
[10] = MRSA Isolate 2, upper value of MIC reading, in µg/mL
[11] = MRSA Isolate 3, upper value of MIC reading, in µg/mL
[12] = MRSA Isolate 4, upper value of MIC reading, in µg/mL
[13] = MRSA Isolate 5, upper value of MIC reading, in µg/mL
[14] = MRSA Isolate 6, upper value of MIC reading, in µg/mL
[15] = MRSA Isolate 7, upper value of MIC reading, in µg/mL
[16] = MRSA Isolate 8, upper value of MIC reading, in µg/mL
[17] = MRSA Isolate 9, upper value of MIC reading, in µg/mL
[18] = MRSA Isolate 10, upper value of MIC reading, in µg/mL

Structure (SMILES): N/N=C(\N)c1ccccn1 [Compound 2PY, Pyridine-2-carboxamidrazone]
- direct MNL toxicity (in words) [1]: most toxic
- % Leucocyte Death ([1]; human, 18 h, 1 mM): 12.1 ± 2.2%

Structure (SMILES): Cc1ccccc1C=NN=C(N)c1ccccn1 [Compound 2PYah]
- MRSA MIC range [2, 8]: 128 to 256 µg/mL

Structure (SMILES): CCc1ccccc1C=NN=C(N)c1ccccn1 [Compound 2PYai]
- MRSA MIC range [2, 8]: 128 to 256 µg/mL

Structure (SMILES): Cc1cccc(C=NN=C(N)c2ccccn2)c1 [Compound 2PYaj]
- MRSA MIC range [2, 8]: 128 to 256 µg/mL

Structure (SMILES): NC(=NN=Cc1cc([N+](=O)[O-])ccc1O)c1ccccn1 [Compound 2PYcj]
- MIC ([3]; S. aureus Cowan 1): 32 µg/mL (≈ 112 µM)
- MIC ([3]; S. aureus NCTC 6571): 16 µg/mL (≈ 56.1 µM)
- MIC ([3]; S. aureus NCTC 10788): 16 µg/mL (≈ 56.1 µM)
- MIC [2, 9]: 16
- MIC [2, 10]: 16
- MIC [2, 11]: 4
- MIC [2, 12]: 8
- MIC [2, 13]: 16
- MIC [2, 14]: 16
- MIC [2, 15]: 8
- MIC [2, 16]: 4-8
- MIC [2, 17]: 8
- MIC [2, 18]: 8
- MRSA MIC range [2, 8]: 4 to 32 µg/mL
- MIC ([4]; S. epidemisis Isolate 1): 256 µg/mL (≈ 897 µM)
- MIC ([4]; S. epidemisis NCTC 11047): 256 µg/mL (≈ 897 µM)
- MIC ([5]; E. faecalis Isolate 3): 256 µg/mL (≈ 897 µM)
- MIC ([5]; E. faecalis Isolate 5): 256 µg/mL (≈ 897 µM)
- MIC [6]: 256 µg/mL (≈ 897 µM)

Structure (SMILES): NC(=NN=Cc1cc(Br)cc([N+](=O)[O-])c1O)c1ccccn1 [Compound 2PYcl]
- MIC ([3]; S. aureus Cowan 1): 64 µg/mL (≈ 176 µM)
- MIC ([3]; S. aureus NCTC 6571): 32 µg/mL (≈ 87.9 µM)
- MIC ([3]; S. aureus NCTC 10788): 32 µg/mL (≈ 87.9 µM)
- MIC [2, 9]: 64
- MIC [2, 10]: 64
- MIC [2, 11]: 64
- MIC [2, 12]: 32
- MIC [2, 13]: 32
- MIC [2, 14]: 64
- MIC [2, 15]: 64
- MIC [2, 16]: 64
- MIC [2, 17]: 64
- MIC [2, 18]: 64
- MIC ([7]; E. faecium ACTCC 10541): 128 µg/mL (≈ 351 µM)
- MIC ([7]; E. faecium NCTC 7171): 256 µg/mL (≈ 703 µM)
- MIC ([5]; E. faecalis EBH1): 256 µg/mL (≈ 703 µM)
- MIC ([5]; E. faecalis NCTC 5957): 256 µg/mL (≈ 703 µM)

Structure (SMILES): NC(=NN=Cc1c(O)ccc2ccccc12)c1ccccn1 [Compound 2PYdb]
- MIC ([3]; S. aureus NCTC 6571): > 256 µg/mL
- MIC [2, 11]: >256
- MRSA MIC range [2, 8]: > 256 µg/mL

Structure (SMILES): NC(=NN=Cc1cccc(Cl)c1)c1ccccn1 [Compound 2PYdg]
- MRSA MIC range [2, 8]: 64 to 128 µg/mL

Structure (SMILES): CN(C)c1ccc(C=NN=C(N)c2ccccn2)cc1 [Compound 2PYdq]
- MRSA MIC range [2, 8]: 128 to 256 µg/mL

- MIC ([3]; Staphylococcus aureus, 18 h, S. aureus Cowan 1, read-out: MIC): 64 µg/mL (≈ 217 µM)
- MIC ([3]; Staphylococcus aureus, NCTC6571, 18 h, S. aureus NCTC 6571, read-out: MIC): 64 µg/mL (≈ 217 µM)
- MIC ([3]; Staphylococcus aureus, NCTC10788, 18 h, S. aureus NCTC 10788, read-out: MIC): 64 µg/mL (≈ 217 µM)
- MIC ([2]; Staphylococcus aureus, 18 h, MRSA Isolate 1, upper value of MIC reading, read-out: MIC): 64 µg/mL (≈ 217 µM)
- MIC ([2]; Staphylococcus aureus, 18 h, MRSA Isolate 2, upper value of MIC reading, read-out: MIC): 64 µg/mL (≈ 217 µM)
- MIC ([2]; Staphylococcus aureus, 18 h, MRSA Isolate 3, upper value of MIC reading, read-out: MIC): 64 µg/mL (≈ 217 µM)
- MIC ([2]; Staphylococcus aureus, 18 h, MRSA Isolate 4, upper value of MIC reading, read-out: MIC): 64 µg/mL (≈ 217 µM)
- MIC ([2]; Staphylococcus aureus, 18 h, MRSA Isolate 5, upper value of MIC reading, read-out: MIC): 64 µg/mL (≈ 217 µM)
- MIC ([2]; Staphylococcus aureus, 18 h, MRSA Isolate 6, upper value of MIC reading, read-out: MIC): 64 µg/mL (≈ 217 µM)
- MIC ([2]; Staphylococcus aureus, 18 h, MRSA Isolate 7, upper value of MIC reading, read-out: MIC): 64 µg/mL (≈ 217 µM)
- MIC ([2]; Staphylococcus aureus, 18 h, MRSA Isolate 8, upper value of MIC reading, read-out: MIC): 64 µg/mL (≈ 217 µM)
- MIC ([2]; Staphylococcus aureus, 18 h, MRSA Isolate 9, upper value of MIC reading, read-out: MIC): 64 µg/mL (≈ 217 µM)
- MIC ([2]; Staphylococcus aureus, 18 h, MRSA Isolate 10, upper value of MIC reading, read-out: MIC): 64 µg/mL (≈ 217 µM)
- MIC ([2]; Staphylococcus aureus, MRSA, 18 h, panel of ten MRSA strains (clinical isolates), read-out: MRSA MIC range): 32 to 64 µg/mL (≈ 109 to 217 µM)
- MIC ([7]; Enterococcus faecium, 18 h, E. faecium ACTCC 10541, read-out: MIC): 64 µg/mL (≈ 217 µM)
- MIC ([7]; Enterococcus faecium, NCTC7171, 18 h, E. faecium NCTC 7171, read-out: MIC): 64 µg/mL (≈ 217 µM)
- MIC ([4]; Staphylococcus epidermidis, 18 h, S. epidemisis Isolate 1, read-out: MIC): 64 µg/mL (≈ 217 µM)
- MIC ([4]; Staphylococcus epidermidis, NCTC11047, 18 h, S. epidemisis NCTC 11047, read-out: MIC): 64 µg/mL (≈ 217 µM)
- MIC ([5]; Enterococcus faecalis, 18 h, E. faecalis EBH1, read-out: MIC): 64 µg/mL (≈ 217 µM)
- MIC ([5]; Enterococcus faecalis, 18 h, E. faecalis Isolate 1, read-out: MIC): 64 µg/mL (≈ 217 µM)
- MIC ([5]; Enterococcus faecalis, 18 h, E. faecalis Isolate 2, read-out: MIC): 64 µg/mL (≈ 217 µM)
- MIC ([5]; Enterococcus faecalis, 18 h, E. faecalis Isolate 3, read-out: MIC): 64 µg/mL (≈ 217 µM)
- MIC ([5]; Enterococcus faecalis, 18 h, E. faecalis Isolate 4, read-out: MIC): 128 µg/mL (≈ 435 µM)
- MIC ([5]; Enterococcus faecalis, 18 h, E. faecalis Isolate 5, read-out: MIC): 128 µg/mL (≈ 435 µM)
- MIC ([5]; Enterococcus faecalis, NCTC5957, 18 h, E. faecalis NCTC 5957, read-out: MIC): 64 µg/mL (≈ 217 µM)
Structure (SMILES): CCC(C)(C)c1ccc(/C=N/N=C(\N)c2ccncc2)cc1 [Compound 4PYaf, N^1-[4-(1,1-dimethylpropyl)benzylidene]-pyridine-4-carboxamidrazone]
- MIC ([6]; Staphylococcus haemolyticus, 18 h, read-out: MIC): 64 µg/mL (≈ 217 µM)

Structure (SMILES): NC(=NN=Cc1ccc(O)c(O)c1O)c1ccncc1 [Compound 4PYcb]
- MRSA MIC range [2, 8]: 30 to 40 µg/mL
